Where two headings read alike, the source gives them in different places.
Key:
hERG channel [1] = biological target: T1, hERG channel (Homo sapiens, UniProt Q12809, DEL141-380/DEL871-1005); experiment: in vitro; details: pH 7.4
hERG channel [2] = biological target: T1, hERG channel; experiment: biochemical
hERG = hERG (Homo sapiens, UniProt Q12809); details: cited from earlier work
hERG channel [3] = biological target: T1, hERG channel; experiment: liposome flux assay (LFA) with engineered hERG channel protein in proteoliposomes; details: n = 3, mean ± SEM, compared with DMSO controls
hERG channel [4] = biological target: T1, hERG channel
[5] = read-out: IC50 patch, electrophysiology-determined values reported in the literature

Compound | inhibition at 100 µM (hERG channel [1]) | other results
CC(=O)Nc1ccc(O)cc1 [Acetaminophen] | 11.6 ± 7.5% | –
CC(=O)Nc1nnc(S(N)(=O)=O)s1 [Acetazolamide] | 4.4 ± 1.8% | –
CCN(CC)CCCN(c1ccccc1)C1Cc2ccccc2C1 [Aprindine] | – | IC50 (hERG channel [2]): 1880 ± 221 nM; IC50 (hERG; [5]): 230 nM
NC[C@H](O)c1ccc(O)c(O)c1 [Arterenol] | – | Percentage inhibition (%) at 100 μM (hERG channel [3]): 3.7 ± 4.3%
CN1CCN(CCCCN2C(=O)CN(/N=C/c3ccc(-c4ccc(Cl)cc4)o3)C2=O)CC1 [Azimilide] | – | IC50 (hERG channel [2]): 4280 ± 1030 nM; IC50 (hERG; [5]): 891 nM
CCCCOc1ccc(CC(=O)NO)cc1 [Bufexamac] | 1.7 ± 6.8% | –
C[N+](C)(C)CCOC(N)=O [Carbachol] | 2.2 ± 4.2% | –
CN/C(=N/CCSCc1nc[nH]c1C)NC#N [Cimetidine] | 19.9 ± 3.7% | –
Clc1cccc(Cl)c1N=C1NCCN1 [Clonidine] | 15.2 ± 5.8% | –
C[N+]1([O-])CCN(C2=Nc3cc(Cl)ccc3Nc3ccccc32)CC1 [Clozapine N-oxide] | – | Percentage inhibition (%) at 100 μM (hERG channel [4]; 100 µM): 2.1 ± 3.0%
C=C(CC)C(=O)c1ccc(OCC(=O)O)c(Cl)c1Cl [Ethacrynic acid] | 8.1 ± 4.4% | –
COc1ccccc1OCC(O)CO (centres unmarked) [Guaifenesin] | -3.5 ± 7.4% | –
CC(C)Cc1ccc(C(C)C(=O)O)cc1 (centres unmarked) [Ibuprofen] | 13.1 ± 2.1% | –
CC(C(O)c1ccc(O)cc1)N1CCC(Cc2ccccc2)CC1 (centres unmarked) [Ifenprodil] | – | IC50 (hERG channel [2]): 1590 ± 71 nM; IC50 (hERG; [5]): 410 nM
CC1Cc2ccccc2N1NC(=O)c1ccc(Cl)c(S(N)(=O)=O)c1 (centres unmarked) [Indapamide] | 4.8 ± 6.7% | –
N=C(N)SCCc1ccc(OCc2ccc([N+](=O)[O-])cc2)cc1 [KB-R7943] | – | IC50 (hERG channel [4]): 1780 ± 140 nM; IC50 (hERG; [5]): 89 nM
CN(C)c1ccc(O)c2c1C[C@H]1C[C@H]3[C@H](N(C)C)C(O)=C(C(N)=O)C(=O)[C@@]3(O)C(O)=C1C2=O [Minocycline] | -2.5 ± 11.9% | –
CC1(C)O[C@H]1COc1c2ccoc2cc2oc(=O)ccc12 [Oxypeucedanin] | 4.5 ± 19.3% | –
CC1=C(CC(=O)O)c2cc(F)ccc2/C1=C\c1ccc([S+](C)[O-])cc1 (centres unmarked) [Sulindac] | 1.1 ± 2.8% | –
O=c1n(CCCN2CCN(c3cccc(Cl)c3)CC2)nc2ccccn12 [Trazadone] | – | IC50 (hERG channel [4]): 9250 ± 529 nM; IC50 (hERG): 690 to 2900 nM
COc1cc(Cc2cnc(N)nc2N)cc(OC)c1OC [Trimethoprim] | 20.6 ± 1.9% | –
CC(=O)CC(c1ccccc1)c1c(O)c2ccccc2oc1=O (centres unmarked) [Warfarin] | 9.1 ± 5.5% | –
COC[C@H]1OC(=O)c2coc3c2[C@@]1(C)C1=C(C3=O)[C@@H]2CCC(=O)[C@@]2(C)C[C@H]1OC(C)=O [Wortmannin] | 1.7 ± 5.8% | –
Penicillin | – | Percentage inhibition (%) at 100 μM (hERG channel [3]): −0.4 ± 9.5%

From US11579152B2, “Engineered hERG channel proteins, vesicles and methods of identifying small molecule pharmacological agents” (priority 2016, dated 2023)
